Drawing on ChEMBL document CHEMBL5584203, “Discovery of sinomenine/8-Bis(benzylthio)octanoic acid hybrids as potential anti-leukemia drug candidate via mitochondrial pathway” (Bioorg Med Chem Lett, 2024), this text covers IC50 for eleven compounds.

Data set [1] deals with HepG2. The experiment in a line: Antiproliferative activity against human HepG2 cells by CCK8 assay. The class given is functional, cell-based.
For data set [2], the system named is MDA-MB-231. The experiment in a line: Antiproliferative activity against human MDA-MB-231 cells by CCK8 assay. The class given is functional, cell-based. (Formazan colour is commonly taken as a measure of viable cells.)
Data set [3] in a line: Cytotoxicity against human PBMCs by CCK8 assay. The class given is toxicity, cell-based, PBMC.
The test system of data set [4] is K562. Description: Antiproliferative activity against human K562 cells by CCK8 assay. The class given is functional, cell-based.
In data set [5] the test system is A549. The experiment in a line: Antiproliferative activity against human A549 cells by CCK8 assay. The class given is functional, cell-based.
The subject of data set [6] is PANC-1. The experiment in a line: Antiproliferative activity against human PANC-1 cells by CCK8 assay. It is filed as functional, cell-based.
For data set [7], the system named is MCF7. Description: Antiproliferative activity against human MCF7 cells by CCK8 assay. The class given is functional, cell-based.

As usually defined, the IC50 is the midpoint of a concentration-inhibition curve. Read a high IC50 as a need for much substance. Consider `COC1=CC2[C@@H]3Cc4ccc(OC)c(OC(=O)CCCCC(CCSCc5ccccc5)SCc5ccccc5)c4[C@]2(CCN3C)CC1=O` (stereo partly specified), for which the IC50 is more than 50 µM in data set [1]; more than 50 µM in data set [2]; more than 50 µM in data set [3]; 23.4 µM in data set [4]; more than 50 µM in data set [5]; more than 50 µM in data set [6]. The compound also registered a 50% inhibitory concentration (IC50) in data set [7] of more than 50 µM.
In the case of `COC1=CC2[C@@H]3Cc4ccc(OC)c(OCCCOC(=O)CCCCC(CCSCc5ccccc5)SCc5ccccc5)c4[C@]2(CCN3C)CC1=O` (stereo partly specified), the IC50 was 37 µM in data set [1]; more than 50 µM in data set [2]; more than 50 µM in data set [3]; 4.16 µM in data set [4]; 17.7 µM in data set [5]; more than 50 µM in data set [6]. Moreover, in data set [7], half-maximal inhibition (IC50) required 48.4 µM.
As for `COC1=C[C@@H]2[C@@H]3Cc4ccc(OC)c(O)c4[C@]2(CCN3C)CC1=O` [SINOMENINE], the IC50 in data set [1] was more than 50 µM; in data set [2] it was more than 50 µM; in data set [4], 37.2 µM; in data set [5], more than 50 µM; in data set [6] it was more than 50 µM; in data set [7] it was more than 50 µM.
For `COC1=CC2[C@@H]3Cc4c(Cl)cc(OC)c(O)c4[C@]2(CCN3C)CC1=O` (stereo partly specified), the IC50 in data set [1] is more than 50 µM; in data set [2], more than 50 µM; in data set [4], 39.3 µM; in data set [5], more than 50 µM; in data set [6], more than 50 µM; in data set [7] it was more than 50 µM.
As to `COC1=CC2[C@@H]3Cc4c(Br)cc(OC)c(OC(=O)CCCCC(CCSCc5ccccc5)SCc5ccccc5)c4[C@]2(CCN3C)CC1=O` (stereo partly specified), the IC50 is more than 50 µM in data set [1]; more than 50 µM in data set [2]; more than 50 µM in data set [3]; 17.4 µM in data set [4]; more than 50 µM in data set [5]; more than 50 µM in data set [6]. This compound also showed an IC50 in data set [7] of more than 50 µM.
`COC1=CC2[C@@H]3Cc4c(Cl)cc(OC)c(OC(=O)CCCCC(CCSCc5ccccc5)SCc5ccccc5)c4[C@]2(CCN3C)CC1=O` (stereo partly specified): the IC50 in data set [1] is more than 50 µM; in data set [2], more than 50 µM; in data set [3], more than 50 µM; in data set [4], 26 µM; in data set [5], more than 50 µM; in data set [6], more than 50 µM. Further, the IC50 in data set [7] was more than 50 µM.
Take `COC1=CC2[C@@H]3Cc4ccc(OC)c(OCCCCOC(=O)CCCCC(CCSCc5ccccc5)SCc5ccccc5)c4[C@]2(CCN3C)CC1=O` (stereo partly specified): the IC50 in data set [1] was 36.6 µM; in data set [2] it was more than 50 µM; in data set [3] it was more than 50 µM; in data set [4] it was 5.32 µM; in data set [5] it was 28.6 µM; in data set [6] it was more than 50 µM. In data set [7], half-maximal inhibition (IC50) required 46.9 µM.
Take `O=C(O)CCCCC(CCSCc1ccccc1)SCc1ccccc1` (stereo unspecified) [CPI 613]: the IC50 in data set [1], in data set [2], in data set [4], in data set [5], in data set [6] and in data set [7] was more than 50 µM in each case.
On to `COC1=CC2[C@@H]3Cc4ccc(OC)c(OCCOC(=O)CCCCC(CCSCc5ccccc5)SCc5ccccc5)c4[C@]2(CCN3C)CC1=O` (stereo partly specified), for which the IC50 in data set [1] is 47.5 µM; in data set [2], more than 50 µM; in data set [3] it was more than 50 µM; in data set [4], 158 µM; in data set [5], 11.6 µM; in data set [6], more than 50 µM. This compound came in with an IC50 in data set [7] of more than 50 µM.
With `COC1=CC2[C@@H]3Cc4c(Br)cc(OC)c(O)c4[C@]2(CCN3C)CC1=O` (stereo partly specified), the IC50 in data set [1] is more than 50 µM; in data set [2], more than 50 µM; in data set [4], 33 µM; in data set [5] it was more than 50 µM; in data set [6], more than 50 µM; in data set [7], more than 50 µM.
In the case of `O=c1[nH]cc(F)c(=O)[nH]1` [FLUOROURACIL], the IC50 was more than 50 µM in data set [2]; 5.18 µM in data set [4]; 34.9 µM in data set [5]; 48.2 µM in data set [6]; more than 50 µM in data set [7].
